Measured values reported in patent US20050153943A1, “Methods of simultaneously treating mucositis and fungal infection” (priority 2002, published 2005).
≈ marks a conversion by molar mass, not a printed value. Structures can show the parent of a compound that is named as a salt. Marks after values point to notes of the source that are not given here.

How the values were obtained:
[1] = tested on: 11 different species of fungi; assay: Summary of Example 40 over the whole panel; type: cell-based; conditions: 11 tested fungi, up to 4.00 μg/ml
Procedure: (§1) Each drug was dissolved in DMSO (1.0 mg/ml) as a stock solution and stored at −20° C. Just prior to use, each stock solution was thawed and diluted in DMSO to produce 6 different 100× concentrations. Potato dextrose agar was dissolved in distilled water (39 g/L) and sterilized at […] (250° F.) for 15 min. The agar solution was mixed with each drug (in a water bath at 60° C.) to make a series of final concentrations, i.e. 0.00, 0.25, 0.50, 1.00, 2.00, 4.00 μg/ml. The mixtures were then transferred to 24-well plates (1 ml/well). After the gel had formed, the fungus in PBS (spore count=1-5×10^4/ml) was inoculated by pipetting 10 μl onto each gel. The plates were incubated at 30° C. for different times, depending on the requirement of each species, e.g. 24 hours for Penicillium, Rhizopus, Tricothecium, Ulocladium, Absidia, Aspergilus, Caindida, Cunninghamella, 3 days for Scedosporium, and 5 days for Fonsecae and Phialophora.
(§2) “*” indicates better than or similar results to Amphotericin B. “NI” indicates no detectable inhibition.

Ulocladium Species = assay: IC50 and MIC on microplate agar gels (Example 40); type: cell-based; conditions: agar gel, 0.25-4.00 μg/ml, 30° C., 24 hours; NI = no detectable inhibition
Procedure: as §1, §2

Rhizopus Species = assay: IC50 and MIC on microplate agar gels (Example 40); type: cell-based; conditions: agar gel, 0.25-4.00 μg/ml, 30° C., 24 hours; NI = no detectable inhibition
Procedure: as §1, §2

Scedosporium Apiospermum = assay: IC50 and MIC on microplate agar gels (Example 40); type: cell-based; conditions: agar gel, 0.25-4.00 μg/ml, 30° C., 3 days; NI = no detectable inhibition
Procedure: as §1, §2

Fonsecae Species = assay: IC50 and MIC on microplate agar gels (Example 40); type: cell-based; conditions: agar gel, 0.25-4.00 μg/ml, 30° C., 5 days; NI = no detectable inhibition
Procedure: as §1, §2

Penicillium Species = assay: IC50 and MIC on microplate agar gels (Example 40); type: cell-based; conditions: agar gel, 0.25-4.00 μg/ml, 30° C., 24 hours; NI = no detectable inhibition
Procedure: as §1, §2

Candida Albicans = assay: IC50 and MIC on microplate agar gels (Example 40); type: cell-based; conditions: agar gel, 0.25-4.00 μg/ml, 30° C., 24 hours; NI = no detectable inhibition
Procedure: as §1, §2

Aspergilus Fumigatus = assay: IC50 and MIC on microplate agar gels (Example 40); type: cell-based; conditions: agar gel, 0.25-4.00 μg/ml, 30° C., 24 hours; NI = no detectable inhibition
Procedure: as §1, §2

Absidia Species = assay: IC50 and MIC on microplate agar gels (Example 40); type: cell-based; conditions: agar gel, 0.25-4.00 μg/ml, 30° C., 24 hours; NI = no detectable inhibition
Procedure: as §1, §2

Aspergillus f. [2] = assay: Direct comparison of CMT-3 and Amphotericin B, agar plates (Example 39); type: cell-based
Penicillium spores = assay: Fungistatic or fungicidal activity: pre-treatment of spores, dilution, regrowth on agar (Example 41); type: cell-based; conditions: for Growth rate of Penicillium in control cultures with low drug concentration: 0.01 and 0.05 μl/ml, no pre-treatment; for Type of antifungal activity (fungistatic or fungicidal): against Penicillium; for Growth of Penicillium on agar gels after pretreatment of spores: pretreatment with 10 and 50 μl/ml for 24 hours at 30° C., diluted 1000 times, 48 hours on agar
Procedure: In the pre-treatment phase of the experiment, Penicillium spores were suspended in PBS to achieve a spore count of 10^7/ml. CMT-3 and Amphotericin B were dissolved in DMSO to reach a concentration of 1.0 mg/ml as stock solutions. 10 or 50 μl aliquots of these stock solutions were added to the incubation mixture (containing 1.0 ml of 10^7/ml of Penicillium spores in PBS) to achieve a final concentration of 10 μg/ml or 50 μg/ml, respectively, for both drugs. The various incubations of Penicillium were carried out for 24 hours at 30° C.
After the pre-treatment phase, the reaction mixtures were diluted 1000 times with PBS, reducing the concentration of both drugs to 0.01 μg/ml or 0.05 μg/ml, and reducing the Penicillium spore count to 10^4/ml. These drug concentrations of both CMT-3 and Amphotericin B would not be expected to inhibit the growth of the viable Penicillium spores.
Controls were then prepared. Before incubation, each tube was either not diluted further, or diluted to ½ or ¼ with PBS to produce tubes with three different spore counts, ie, 10^4/ml, or 0.5×10^4/ml, or 0.25×10^4/ml. These cultures were then inoculated on potato dextrose agar gels in 24-well plates, and incubated at 30° C. for 48 hours to determine the rate of growth of the fungus as described before.
The controls were prepared from the suspension in the pre-treatment phase containing only Penicillium spores 10^7/ml, and PBS. This control was diluted by 1000 times with PBS to produce a spore count of 10^4/ml. 1.0 ml of this diluted spore suspension was added to eight tubes. The stock solutions of CMT-3 and Amphotericin B, and DMSO were also diluted by 1000 times with PBS (the new concentration being 1.0 μg/ml for both drugs and 0.1% for DMSO), and 10 or 50 μl of these solutions was added into the above tubes. The final concentrations in each tube was either 0.01 μg/ml or 0.05 μg/ml for both drugs (CMT-3 or AmB), or 0.001% or 0.005% for DMSO. These tubes were further treated as described above to determine the growth of the fungus as controls.

Aspergillus f. [3] = assay: Direct comparison of CMT-3 and Amphotericin B, agar plates (Example 39); type: cell-based; remark: listed apart in the source
Procedure: The plates were prepared as described above, using […], 0.50, 1.00 and 2.00 concentrations of each of the drugs tested. DMSO was used as a control

[4] = single dose of two 100 mg minocycline HCl tablets; cited from earlier work
[5] = 250 mg every six hours over a twenty-four hour period; cited from earlier work
[6] = tested on: eleven different species of fungi; conditions: cited from earlier work
Cunninghamella Species = assay: IC50 and MIC on microplate agar gels (Example 40); type: cell-based; conditions: agar gel, 0.25-4.00 μg/ml, 30° C., 24 hours; NI = no detectable inhibition
Procedure: as §1, §2

Phialophora Verrucosa = assay: IC50 and MIC on microplate agar gels (Example 40); type: cell-based; conditions: agar gel, 0.25-4.00 μg/ml, 30° C., 5 days; NI = no detectable inhibition
Procedure: as §1, §2

Tricothecium Species = assay: IC50 and MIC on microplate agar gels (Example 40); type: cell-based; conditions: agar gel, 0.25-4.00 μg/ml, 30° C., 24 hours; NI = no detectable inhibition
Procedure: as §1, §2

[7] = Toxicity in vivo (statement); conditions: at 2.0 μg/ml concentration; unlike AmB
Rhizopus sp. = assay: Fungal growth on SABHI agar containing CMT (Example 38); type: cell-based; conditions: 25 μg/ml agar, Example 38
Procedure: The following fungi were inoculated onto potato dextrose agar (PDA) from stock cultures and incubated aerobically at 30° C.: Aspergillus [NT] 1022, Penicillium sp. (laboratory isolate), Candida albicans, ATCC 14053, and Rhizopus sp. […] The conidia were suspended in 0.9% saline and the turbidity was adjusted to match a 0.5 MacFarland standard (equivalent to approximately 1.5×10^8 cells). Candida albicans was suspended in saline and adjusted to 0.5 MacFarland in a similar manner. These suspensions were diluted 1:100 in sterile 0.9% saline. SABHI Agar (Difco) pH 7.0 was prepared in 100 ml amounts and sterilized at 121° C. for 15 min. […] SABHI Agar plates of each CMT and SAHBI agar without CMT using dimethylsulphoxide (DMSO) as a control were inoculated with 10 μl of conidia suspension of Aspergillus fumigatus, Penicillium sp. and Rhizopus sp. and 10 μl suspension of Candida albicans prepared as described above. The plates were then incubated aerobically for 24 hour and for 48 hours at 30° C. The results are set forth in Table 1 (24 hr. incubation) and Table 2 (48 hr. incubation). [table]

## C[C@@H]1[C@H](O)[C@@H](C)/C=C/C=C/C=C/C=C/C=C/C=C/C=C/[C@H](O[C@@H]2O[C@H](C)[C@@H](O)[C@H](N)[C@@H]2O)C[C@@H]2O[C@](O)(C[C@@H](O)C[C@@H](O)[C@H](O)CC[C@@H](O)C[C@@H](O)CC(=O)O[C@H]1C)C[C@H](O)[C@H]2C(=O)O [AmB, Amphotericin B]
[1]
  Antifungal activity over the panel (summary in words): the same or less antifungal activity than CMT-3
Ulocladium Species
  IC50: 1.0 µg/mL (≈ 1.08 µM)
  MIC: 2.0 µg/mL (≈ 2.16 µM)
Rhizopus Species
  IC50: 0.4 µg/mL (≈ 0.433 µM)
  MIC: 1.0 µg/mL (≈ 1.08 µM)
Scedosporium Apiospermum
  IC50: 4.0 µg/mL (≈ 4.33 µM)
  MIC: >4 µg/mL
Fonsecae Species
  IC50: 4.0 µg/mL (≈ 4.33 µM)
  MIC: >4.0 µg/mL
Penicillium Species
  IC50: 0.12 µg/mL (≈ 0.13 µM)
  MIC: 0.25 µg/mL (≈ 0.271 µM)
Candida Albicans
  IC50: 0.5 µg/mL (≈ 0.541 µM)
  MIC: 1.0 µg/mL (≈ 1.08 µM)
Aspergilus Fumigatus
  IC50: 0.8 µg/mL (≈ 0.866 µM)
  MIC: 2.0 µg/mL (≈ 2.16 µM)
Absidia Species
  IC50: 1.0 µg/mL (≈ 1.08 µM)
  MIC: 4.0 µg/mL (≈ 4.33 µM)
Aspergillus f. [2]
  Growth grade at Conc. 0.25 μg/ml: 2 (50% reduction in growth of colonies compared to control.)
Penicillium spores
  Growth rate of Penicillium in control cultures with low drug concentration: did not inhibit the growth
  Type of antifungal activity (fungistatic or fungicidal): fungistatic
  Growth of Penicillium on agar gels after pretreatment of spores: same rate of growth as PBS and DMSO controls
Aspergillus f. [3]
  Growth grade at Conc. 0.125 μg/ml: 4 (Level of growth in the absence of anti-fungal agent (control).)
  Growth grade at Conc. 0.50 μg/ml: 1 (75% reduction in growth in colonies compared to control.)
  Growth grade at Conc. 2.00 μg/ml: 0 (complete inhibition of growth.)
Aspergillus f. [3]; 1.0 μg/ml
  Fungal growth inhibited: 100%
Aspergillus f. [3]; 1.00 μg/ml
  Growth grade at Conc. 1.00 μg/ml: 0 (complete inhibition of growth.)
Aspergillus f. [3]; 2.0 μg/ml
  Fungal growth inhibited: 100%

## CN(C)c1ccc(O)c2c1C[C@H]1C[C@H]3[C@H](N(C)C)C(O)=C(C(N)=O)C(=O)[C@@]3(O)C(O)=C1C2=O [minocycline HCl]
[4]
  average minocycline serum level: 2.24 µg/mL

## CN(C)[C@@H]1C(O)=C(C(N)=O)C(=O)[C@@]2(O)C(O)=C3C(=O)c4c(O)cccc4[C@@](C)(O)[C@H]3C[C@@H]12 [tetracycline HCl]
[5]
  peak plasma concentration: approximately 3 μg/ml

## NC(=O)C1=C(O)C[C@@H]2C[C@@H]3Cc4cccc(O)c4C(=O)C3=C(O)[C@]2(O)C1=O [COL 3, 6-demethyl-6-deoxy-4-dedimethylaminotetracycline]
[1]
  Antifungal activity over the panel (summary in words): effective on all 11 tested fungi
[6]
  Anti-fungal activity in vitro (Lu et al.): anti-fungal activity with eight of the eleven species
Cunninghamella Species
  IC50: 2.0 µg/mL (≈ 5.39 µM)
  MIC: 4.0* μg/ml
Ulocladium Species
  IC50: 0.25 µg/mL (≈ 0.673 µM)
  MIC: 1.0* μg/ml
Rhizopus Species
  IC50: 0.8 µg/mL (≈ 2.15 µM)
  MIC: 2.0 µg/mL (≈ 5.39 µM)
Phialophora Verrucosa
  IC50: 1.5 µg/mL (≈ 4.04 µM)
  MIC: 4.0* μg/ml
Tricothecium Species
  IC50: 0.2 µg/mL (≈ 0.539 µM)
  MIC: 1.5* μg/ml
Scedosporium Apiospermum
  IC50: 0.2 µg/mL (≈ 0.539 µM)
  MIC: 1.5* μg/ml
Fonsecae Species
  IC50: 1.0 µg/mL (≈ 2.69 µM)
  MIC: 4.0* μg/ml
Penicillium Species
  IC50: 0.2 µg/mL (≈ 0.539 µM)
  MIC: 0.5 µg/mL (≈ 1.35 µM)
Candida Albicans
  IC50: 1.0 µg/mL (≈ 2.69 µM)
  MIC: 2.0 µg/mL (≈ 5.39 µM)
Aspergilus Fumigatus
  IC50: 0.5 µg/mL (≈ 1.35 µM)
  MIC: 1.0* μg/ml
Absidia Species
  IC50: 1.5 µg/mL (≈ 4.04 µM)
  MIC: 4.0* μg/ml
Aspergillus f. [2]
  Growth grade at Conc. 0.25 μg/ml: 2 (50% reduction in growth of colonies compared to control.)
[7]
  Toxicity in vivo: very little toxicity
Rhizopus sp.
  Anti-fungal activity (summary in words): inhibited
Penicillium spores
  Growth rate of Penicillium in control cultures with low drug concentration: did not inhibit the growth
  Type of antifungal activity (fungistatic or fungicidal): fungicidal
  Growth of Penicillium on agar gels after pretreatment of spores: little or no growth
Aspergillus f. [3]
  Growth grade at Conc. 0.125 μg/ml: 4 (Level of growth in the absence of anti-fungal agent (control).)
  Growth grade at Conc. 0.50 μg/ml: 1 (75% reduction in growth in colonies compared to control.)
  Growth grade at Conc. 2.00 μg/ml: 0 (complete inhibition of growth.)
Aspergillus f. [3]; 1.0 μg/ml
  Fungal growth inhibited: 95%
Aspergillus f. [3]; 2.0 μg/ml
  Fungal growth inhibited: 100%
